{"source": "a melting point compilation (Tetko et al.; mined from patent text by program, amines drawn as free bases though some values may be those of a salt)"}
{"units": {"melting point": "°C"}}
{"smiles": "O=C(O)CCCC12CCC(=O)N1C(=O)CC2", "melting point": "178 to 180"}
{"smiles": "C/C(NCc1ccccc1)=C(\\C#N)C(N)=S", "melting point": "157 to 159"}
{"smiles": "C=C(C)C(=O)Nc1ccc2ccc(Cl)nc2n1", "melting point": 182}
{"smiles": "Cc1nc(-c2ccc(N3CC(C(=O)O)OC3=O)cc2)no1", "note": "(configuration not stated)", "melting point": "215 to 218"}
{"smiles": "CN(C)CC(O)CC1(O)c2ccccc2CCc2ccccc21", "note": "(configuration not stated)", "melting point": "144 to 146"}
{"smiles": "CCOC(=O)c1ccc(/C=C(\\C)c2ccc3c(c2)C(C)(C)CCC3(C)C)cc1", "melting point": "90 to 91"}
{"smiles": "Cc1nc(-n2ccc(OCc3ccccc3)cc2=O)sc1C(=O)NCc1ccc(F)c(F)c1", "melting point": "225 to 227"}
{"smiles": "CCONC(=O)c1ccc(-c2cccc(CN(C)Cc3ccccc3)c2)cn1", "melting point": "85 to 90"}
{"smiles": "CCn1c(=O)ccc2cnc(Nc3ccccc3OC)nc21", "melting point": "126 to 128"}
{"smiles": "Cc1cccc(C)c1N(Cn1cnc(Cl)c1Cl)C(=O)CCl", "melting point": 99}
{"smiles": "COc1ccc2c(=O)cc[nH]c2c1O", "melting point": "228 to 230"}
{"smiles": "COc1ccc2nccc(CCCC3CCCNC3)c2c1", "note": "(configuration not stated)", "melting point": 110}
{"smiles": "COc1ccc2ncc(C#N)c(Nc3ccc4nn[nH]c4c3)c2c1", "melting point": "> 250"}
{"smiles": "Nc1ccccc1C(=O)C1CCCCC1", "melting point": "74 to 75"}
{"smiles": "c1cc2sccc2cn1", "melting point": "< 50"}
{"smiles": "O=C(Nc1ccccc1S(=O)(=O)N1CCCCC1)N[C@@H](Cc1ccc(Oc2nccc3ccncc23)cc1)C(=O)O", "melting point": 159}
{"smiles": "COc1ccc(C(NCCCc2ccccc2)c2cccc(Nc3c(N)c(=O)c3=O)c2)cc1", "note": "(configuration not stated)", "melting point": "178 to 180"}
{"smiles": "Cn1c(C(F)(F)F)cc(=O)n(-c2cc(OCCBr)c(Cl)cc2F)c1=O", "melting point": "125 to 127"}
{"smiles": "N#Cc1ccc(N(CCCCOc2ccc(OS(N)(=O)=O)cc2)n2cnnc2)cc1", "melting point": "164 to 172"}
{"smiles": "Cc1nnc(-c2ccc3occ(-c4ccccc4C(F)(F)F)c3c2)o1", "melting point": "159 to 160"}
{"smiles": "COc1cnc2c(C)ccc(-c3cccc(C(F)(F)F)c3)c2n1", "melting point": "119 to 121"}
{"smiles": "O=c1ccc(S(=O)(=O)n2ccnc2)n[nH]1", "melting point": "55 to 60"}
{"smiles": "CN1C(=O)C2C3C=CC(CC3)C2(c2ccc(F)c(F)c2)C1=O", "note": "(configuration not stated)", "melting point": "125 to 127"}
{"smiles": "Clc1ccc2[nH]c3c(Cl)nc4ccccc4c3c2c1", "melting point": 250}
{"smiles": "CCCCCCCCCCCCCCCC(=O)CC(=O)OCC", "melting point": "37 to 38"}
{"smiles": "C#CCn1c(-c2ccccc2)nc(C(F)(F)F)c(CC)c1=O", "melting point": "111 to 114"}
{"smiles": "c1ccc(CCN2CCN(c3n[nH]c4c3CCCc3ccccc3-4)CC2)cc1", "melting point": "147 to 148"}
{"smiles": "Cn1cc(C=O)c(-c2ccc([N+](=O)[O-])o2)n1", "melting point": "181 to 182"}
{"smiles": "COC(=O)CN(CCNC(=O)OC(C)(C)C)C(=O)Cc1cc2c(C)ccnc2[nH]c1=O", "melting point": "175 to 177"}
{"smiles": "O=[N+]([O-])c1ccc2c(c1)C(c1ccccc1Cl)=NCc1nc(CO)cn1-2", "melting point": "173 to 174"}
{"smiles": "COc1ccc(C2=NN(c3ccc(C(=O)O)cc3)C(=O)C(C)(C)C2)cc1OC", "melting point": "196 to 198"}
{"smiles": "NC(CCc1ccccc1CP(=O)(O)O)C(=O)O", "note": "(configuration not stated)", "melting point": "247 to 249"}
{"smiles": "CC(=O)CSc1nc2ccccc2cc1-c1ccc(F)cc1", "melting point": "95 to 96"}
{"smiles": "CC(=Cc1ccc(C(C)C)cc1)COc1cc(C)c(NC=O)c(C)c1C", "melting point": "153 to 155"}
{"smiles": "Cc1oc2cc(N)ccc2c(=O)c1C", "melting point": "224 to 226"}
{"smiles": "N#Cc1ccc(-c2nc(-c3ccc(F)cc3)c(-c3ccncc3)[nH]2)cc1", "melting point": "268 to 269"}
{"smiles": "COCCOc1ccc(/C=C(\\C)C(=O)NS(=O)(=O)c2ccc(Cl)cc2)c(Oc2ncc(C(F)(F)F)cc2Cl)c1", "melting point": 146}
{"smiles": "COc1cc2c(cc1OC)CCCC(C(=O)N1CCN(Cc3cc(OC)c(OC)c(OC)c3)CC1COC(C)=O)=C2", "note": "(configuration not stated)", "melting point": "135 to 139"}
{"smiles": "COc1ccc(-c2ccc3c(c2)NC(=O)CC(c2cccc(-n4ccnc4)c2)=N3)cc1", "melting point": "207 to 208"}
{"smiles": "CCCc1nn(-c2ccc(C(F)(F)F)cn2)cc1CCCOc1ccc(CC(=O)O)c(C)c1", "melting point": "134 to 135"}
{"smiles": "CCCCCCCCCCCCCCCCCCOC(=O)C=CC(=O)OCC", "melting point": 42}
{"smiles": "COc1c(Cl)ccc(-c2cc(N)c(Cl)c(C(=O)NOCc3cnc(Cl)s3)n2)c1F", "melting point": "164 to 167"}
{"smiles": "c1ccc(CCNc2nccc3ccccc23)cc1", "melting point": "110 to 112"}
{"smiles": "Nc1nc2ccccc2c2c1nc(-c1ccccc1)n2CCCCNC(=S)Nc1cccnc1", "melting point": "118 to 120"}
{"smiles": "Cc1cc(C2=NN=C(C=O)Cc3cc4c(cc32)OCO4)ccc1[N+](=O)[O-]", "melting point": "188 to 191"}
{"smiles": "O=C(NCCn1cc(C(=O)OCc2ccccc2)ccc1=O)c1cccnc1", "melting point": "154 to 155"}
{"smiles": "C=CCC1COC(CC)(CC(=O)OC)c2[nH]c3c(CC)cccc3c21", "note": "(configuration not stated)", "melting point": "92 to 93"}
{"smiles": "Cc1nc(-c2cnc3[nH]cc(C(=O)N[C@@H](C(=O)N4CC(C#N)C4)C4CC4)c3n2)cn1CC(F)(F)F", "melting point": "255 to 256"}
{"smiles": "CCOC(=O)c1cnc2ccc(C#N)cc2c1O", "melting point": "> 265"}
{"smiles": "COc1cc(Nc2c(C#N)cnc3cc(-c4ccccc4CN4CCOCC4)ccc23)c(Cl)cc1Cl", "melting point": "107 to 109"}
{"smiles": "COC(=O)[C@H](Cc1c[nH]cn1)NC(=O)[C@H](Cc1ccccc1)NC(=O)OCc1ccccc1", "melting point": "113 to 116"}
{"smiles": "CC(Oc1ccc(Br)cc1)c1ccnc2ncnn12", "note": "(configuration not stated)", "melting point": "121 to 124"}
